In PubChem BioAssay (NCI):
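Assay format: 96-well plates, 48-hour exposure. At the TGI there is no net growth.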

What was measured:
Assay in all cases: DTP human tumour cell line panel, 48 h
CAKI-1 renal = tested on: CAKI-1 renal
HCC-2998 colon = tested on: HCC-2998 colon
HL-60(TB) leukemia = tested on: HL-60(TB) leukemia
HS 578T breast = tested on: HS 578T breast
NCI-H226 lung = tested on: NCI-H226 lung
PC-3 prostate = tested on: PC-3 prostate
SK-MEL-5 melanoma = tested on: SK-MEL-5 melanoma
T-47D breast = tested on: T-47D breast
TK-10 renal = tested on: TK-10 renal
K-562 leukemia = tested on: K-562 leukemia

| Structure (SMILES) | TGI (CAKI-1 renal) [µM] | TGI (HCC-2998 colon) [µM] | TGI (HL-60(TB) leukemia) [µM] | TGI (HS 578T breast) [µM] | TGI (NCI-H226 lung) [µM] | TGI (PC-3 prostate) [µM] | TGI (SK-MEL-5 melanoma) [µM] | TGI (T-47D breast) [µM] | TGI (TK-10 renal) [µM] | TGI (K-562 leukemia) [µM] |
| --- | --- | --- | --- | --- | --- | --- | --- | --- | --- | --- |
| CCOC(=O)c1nc2ccc(C(F)(F)F)cc2nc1NCc1cc(OC)c(OC)c(OC)c1 | > 100 | > 100 | 83.4 | > 100 | > 100 | > 100 | > 100 | > 100 | > 100 |  |
| CC(=O)OC(/C=C/c1ccccc1)=C(OC(C)C)/C1=C(\c2ccccc2)SCCCSC1=O | > 100 | > 100 | > 100 | > 100 | > 100 | > 100 | > 100 |  | > 100 | > 100 |
| C=CCCN1CCc2c([nH]c3ccccc23)C1C(=O)O (stereo not drawn) | > 100 | > 100 | > 100 |  | > 100 |  | > 100 |  | > 100 | > 100 |
| CC(C)(C)OC(=O)NC(Cc1ccc(OCc2ccccc2)cn1)C(=O)N1CCCCC1 (stereo not drawn) | > 100 | > 100 | 82.1 | > 100 |  | 55.2 | 31 | 33.9 | > 100 | > 100 |
| CCOC(=O)N/N=C(/N)c1cccc([N+](=O)[O-])c1 | > 100 | > 100 | > 100 | > 100 |  | > 100 | > 100 | > 100 | > 100 | > 100 |
| Cc1ccc(/C=C2\CCCc3ccccc3C2=O)cc1 | > 100 |  | 30.7 | 30.8 | 36.1 | > 100 |  |  | > 100 | 53.7 |
| O=P(Nc1ccc(Cl)cc1)(Oc1ccccc1)N(CCCl)CCCl (stereo not drawn) | > 100 | > 100 |  |  | > 100 |  | > 100 |  | > 100 | > 100 |
| NC(N)=NCCC[C@H](N)C(=O)NCC(=O)N[C@@H](CC(=O)O)c1ncc(NC(=O)C(F)(F)F)o1 |  | > 25 | > 25 | > 25 | > 25 | > 25 | > 25 | > 25 | > 25 | > 25 |
| O=C1C=CC[C@H]2O[C@@H](COC(=O)Cc3ccccc3)C[C@H]2O1 | > 100 |  | 65.2 | 59.4 | > 100 | > 100 | > 100 | > 100 | 65.5 | > 100 |
| NN/C(=N\S(=O)(=O)c1cc2ccccc2s1)Nc1ccc(Cl)cc1 | 39.4 |  | 48 |  | 36.5 | 62.4 | 31.8 | 37.8 | 51.2 | > 100 |
| CCOC(=O)CNc1c(OCc2ccccc2)c(=O)c1=O |  | > 100 |  | > 100 | > 100 | > 100 | > 100 | > 100 | > 100 | > 100 |
| CCOc1cn(C2CC(O)C(CO)O2)c(=O)[nH]c1=O (stereo not drawn) | > 100 | > 100 | > 100 | > 100 | > 100 | > 100 | > 100 | > 100 | > 100 |  |
| O=C1CSC(c2cccc(Oc3ccccc3)c2)N1c1ccc(Cl)cc1 (stereo not drawn) | > 100 |  | > 100 | > 100 | > 100 | > 100 | 25.2 | 91.9 | 71.9 | 69.9 |
| O=Cc1c(C(=O)O)[nH]c(=O)[nH]c1=O | > 100 |  | > 100 | > 100 | > 100 | > 100 | > 100 |  | > 100 | > 100 |
| O=C(O)c1ccc([N+](=O)[O-])c2cc3cnccc3nc12 |  | 50.3 | > 100 | 65.6 | 61.6 | 34.6 | 38.4 | 58.6 |  | 36.5 |
| O=C(NNC(=S)Nc1cccc(Cl)c1)c1cc(-c2ccccc2)nc2ccccc12 | 43.1 | 28.2 |  | 41.9 | 40.5 | 29.3 | 33.2 | 36.4 | 30.8 | > 100 |
| OCC(O)COCn1nncc1Cn1ncc2c(SCc3ccccc3)ncnc21 (stereo not drawn) | > 100 | > 100 |  | 25.7 |  | > 100 | > 100 | > 100 | > 100 |  |
| Cc1cccc(N=NC(=O)NNc2cccc(C)c2C)c1C | > 100 | 31.7 | 57.1 |  | > 100 | > 100 | > 100 | > 100 | > 100 | > 100 |
| Oc1c(CN2CCOCC2)ccc2cccnc12 | > 10 | > 10 |  | > 10 | > 10 | > 10 | > 10 | > 10 | > 10 | > 10 |
| CC12C(=O)CC(CC1=O)C2(C)C | > 100 |  | > 100 | > 100 | > 100 | > 100 | > 100 | > 100 | > 100 | > 100 |
| O=C1C=C(C2=CC(=O)C(=O)c3ccccc32)c2ccccc2C1=O | 47.8 |  | > 100 | 90.7 | > 100 | 37.3 | 8.17 | 56.1 | 75.4 | > 100 |
| N#CC(NC12CC3CC(CC(C3)C1)C2)c1ccccc1C(F)(F)F (stereo not drawn) | > 100 | > 100 | > 100 |  | > 100 |  | > 100 |  | > 100 | > 100 |
| NC(N)=N/N=C/c1c[nH]c2ccccc12 | > 100 | > 100 | > 100 |  | > 100 |  | > 100 |  | > 100 | > 100 |
| COCN(CCC1=CCCCC1)C(=O)OC | > 100 | > 100 |  | > 100 |  | > 100 | > 100 | > 100 | > 100 | > 100 |
